Reference: patent US20230057012A1, “TGFB INHIBITORS AND USE THEREOF” (Scholar Rock, Inc., priority 2020, published 2023)

Legend:
non-diseased rat BAL = test: TGFβ downstream tonic signaling in rat BAL; format: in vivo
Excerpt: Indeed, data presented herein support this notion. […] Preferably, TGFβ antagonists for use in the treatment of such conditions exert their inhibitory activities only towards the disease-induced or disease-associated isoform, while preserving the function of the other isoforms that are normally expressed to mediate tonic signaling in the tissue. […] Alternatively or additionally, agents that target and block integrin-dependent activation of TGFβ may be capable of blocking only a subset of integrins responsible for disease-associated TGFβ1 activation, among numerous integrin types that are expressed by various cell types and play a role in the pathogenesis. Furthermore, even where such antagonists may selectively block integrin-mediated activation of the TGFβ1 isoform, it may be ineffective in blocking TGFβ1 activation triggered by other modes, such as protease-dependent activation. By contrast, the isoform-specific, inhibitors of TGFβ1 such as those described herein are aimed to prevent the activation step of TGFβ1 regardless of the particular mode of activation, while maintaining isoform selectivity. Preferably, the isoform-selective activation inhibitor of TGFβ1 is Ab46 or an engineered molecule comprising an antigen-binding fragment thereof.

[1] = system: Female Fischer344 rats or Sprague Dawley (SD) rats; details: rat, in vivo
Protocol: Animals receiving LY2109761 were dosed by oral gavage once daily for five or seven days. Animals were sacrificed and necropsies performed.

Human = details: in vivo; cited from earlier work

In the case of `c1ccc(-c2nn3c(c2-c2ccnc4cc(OCCN5CCOCC5)ccc24)CCC3)nc1` [LY2109761], the “TGFβ downstream tonic signaling” value (non-diseased rat BAL) is reported as “inhibit TGFβ downstream tonic signaling” and the bone findings [1] is reported as “macroscopic abnormally shaped sternum and microscopic increased thickness of the hypertrophic zone in the endplate of the sternum and physis of the femur and tibia”.
In the case of “GC1008: human analog of 1D11, pan-TGFβ antibody”, the Half-life (Human) is given as “Half-life: 21.7 d” and the “previously reported adverse events in human patients” value (Human) is given as “leukocytosis (grade 3), fatigue (grade 3), hypoxia (grade 3), asystole (grade 5), leukopenia (grade 1), recurrent, transient, tender erythematous, nodular skin lesions, suppurative dermatitis, and herpes zoster”.
